Three molecules from patent EP2468882A1, “Aurora kinase polypeptides for identifying fungicidal compounds” (Bayer CropScience AG, priority 2010, dated 2012) can be followed below.

The IC50 is the concentration that gives 50% inhibition. A high value points to weaker potency.

For one assay, the system named is U. maydis. The assay is described as follows: ED50 determination, growth inhibition of U. maydis in liquid culture. Type of assay: cell-based. The settings on record: concentration at which growth in liquid culture is inhibited by 50%; 3 days, 20°C, OD at 600 nm. As for the experimental part: Der ED50 Wert ist die Konzentration einer Verbindung, bei der das Wachstum von U. maydis in Flüssigkultur zu 50% gehemmt wird. Verbindungen für ED50-Bestimmungen wurden in Methanol + 4 g/l Emulgator (z. B. PS 16 von Bayer AG) zu 666,67facher Endkonzentration gelöst. 15 µl jeder Verbindung werden in 7 Konzentrationen bei getrocknet. Flüssigkulturen von U. maydis in Difco Potato Dextrose Broth (BD, Cat No #254920) wurden auf eine OD600 ~ 0,1 eingestellt und je 200 µl dieser Suspension zugegeben. Die Kulturen wurden 3 Tage bei 20°C, 600 Upm und 80% Luftfeuchte inkubiert. Anschließend wurde die OD bei 600 nm bestimmt und gegen die Inhibitor-Konzentration der Verbindung 1 aufgetragen. Als positive Kontrolle wurde Euparen (Dichlorfluarid; CAS 1085-98-9) verwendet, als negative Kontrolle Methanol + PS 16 ohne Inhibitor. Aus der gemessenen OD600 wurde der ED50-Wert bestimmt (Abb. 5). Der ED50 Wert der Verbindung 1 wurde zu 21,8 ppm ermittelt, der ED50 Wert von Dichlorfluarid wurde zu 1 ppm ermittelt. [formula] [formula] [formula] [formula] [formula] [formula] [formula] [formula] [formula] [formula] [formula] [formula] [formula] [formula] [formula] [formula] [formula] [formula] [formula] [formula] [formula] [formula] [formula] [formula] [formula] [formula] [formula] [formula]

Assay [1] deals with Komplex aus SEQ ID NO: 12 und SEQ ID NO: 16 (Mycosarcoma maydis (Ustilago maydis), UniProt A0A0D1E894). The experiment in a line: IMAP fluorescence polarisation assay, inhibition of Aurora kinase (AK/AKA complex). Type of assay: biochemical, U. maydis. The settings on record: final enzyme concentration 2 ng/µl, final ATP 35 µM, reaction time 50 min. An excerpt:
Assay 3: Für den kommerziell erhältlichen IMAP Assay (Molecular Devices) sind 2 Substrate für humane Aurorakinasen (Kemptide, Cat #R7331, Sequenz 5TAMRA-LRRASLG-OH und PKAtide, Cat #R7250, Lot #130188, Sequenz 5FAM-GRTGRRNSI-NH2) kommerziell erwerbbar. Der Assay wurde nach Herstellerangaben durchgeführt. • IMAP Progressive Binding Reagent: Cat #R7284, Lot #143859 • IMAP Progressive Binding Buffer A: Cat #R7285, Lot #42898 • IMAP 5x Reaction Buffer: Cat #R7206, Lot #33060
Der IMAP Fluoreszenz-Polarisations-Assay (Molecular Devices) beruht auf der spezifschen, hochafmen Interaktion zwischen Phosphatgruppen und trivalenten Metallionen. Durch die Kinasereaktion wird ein fluoreszentes Substrat phosphoryliert, welches daraufhin von den in der Stop-Lösung enthaltenen Metall-Kügelchen spezifisch gebunden wird. Durch diese Interaktion erhöht sich die Fluoreszenzpolarisation, was die Bestimmung der Kinaseaktivität ermöglicht. Der Assay wurde nach Angaben des Herstellers wie folgt ausgeführt: • 1 Vol. Inhibitor in 4% DMSO bzw. 4% DMSO • 1 Vol. Enzymlösung • 2 Vol. ATP/Substrat • 12 Vol. Stoplösung • Inkubation bei RT 30 min.
Enzymlösung: z. […]

Komplex aus SEQ ID NO: 12 und SEQ ID NO: 16, sequence (A0A0D1E894 entry or part of it): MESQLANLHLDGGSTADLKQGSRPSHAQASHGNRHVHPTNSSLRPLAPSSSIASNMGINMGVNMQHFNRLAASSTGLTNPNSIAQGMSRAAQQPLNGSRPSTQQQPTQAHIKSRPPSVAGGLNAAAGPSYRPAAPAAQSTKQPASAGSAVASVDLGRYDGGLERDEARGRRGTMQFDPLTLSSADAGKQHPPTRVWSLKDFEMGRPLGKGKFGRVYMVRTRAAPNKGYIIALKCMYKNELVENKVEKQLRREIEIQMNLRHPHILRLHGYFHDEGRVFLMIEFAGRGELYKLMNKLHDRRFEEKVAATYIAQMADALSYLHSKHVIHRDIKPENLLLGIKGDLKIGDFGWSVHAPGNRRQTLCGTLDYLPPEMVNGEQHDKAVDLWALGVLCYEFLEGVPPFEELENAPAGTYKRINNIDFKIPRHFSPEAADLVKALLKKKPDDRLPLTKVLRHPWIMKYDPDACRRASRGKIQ

Consider `CN(C)S(=O)(=O)N(SC(F)(Cl)Cl)c1ccccc1` [Dichlorfluarid], for which, in the assay on U. maydis, the “ED50 Wert” value amounted to 1 ppm.
In assay [1], `CN[C@@H]1C[C@H]2O[C@@](C)([C@@H]1OC)n1c3ccccc3c3c4c(c5c6ccccc6n2c5c31)C(=O)NC4` [Staurosporin] returned a concentration for half-maximal inhibition (IC50) of 2.1 nM.
`COCCOc1ccc(Nc2ncc(Cl)c(NC3CC3)n2)cc1` [Verbindung 1] showed an IC50 in assay [1] of 8.8 nM. Besides, the “ED50 Wert” value in the assay on U. maydis was 21,8 ppm.
